Test results as given in patent US10428044B2, “3-amino-1,5,6,7-tetrahydro-4H-indol-4-ones” (Bayer Pharma Aktiengesellschaft, priority 2014, dated 2019).

These molecules were tested against (recombinant) catalytic domain of human Bub1 (amino acids 704-1085) (Homo sapiens (Human), UniProt O43683) (assay: Bub1 kinase assay (TR-FRET)). Details: ATP 10 μM final, peptide substrate 1 μM final, 60 min at 22° C., read-out: Biological Assay: Bub1 kinase assay median IC50.
Assay type: biochemical
How it was run: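 Compounds were serially diluted 1:3.4 from 2 mM DMSO stocks and incubated with the enzyme reaction for 60 min at 22° C. The reaction was stopped with EDTA, and biotinylated peptide phosphorylation was read by TR-FRET using Eu anti-mouse IgG, anti-phosphoserine antibody and streptavidin-XL665. IC50 was fitted by 4-parameter logistic to inhibition normalized to no-inhibitor and no-enzyme controls.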

(recombinant) catalytic domain of human Bub1 (amino acids 704-1085), sequence (O43683 704-1085): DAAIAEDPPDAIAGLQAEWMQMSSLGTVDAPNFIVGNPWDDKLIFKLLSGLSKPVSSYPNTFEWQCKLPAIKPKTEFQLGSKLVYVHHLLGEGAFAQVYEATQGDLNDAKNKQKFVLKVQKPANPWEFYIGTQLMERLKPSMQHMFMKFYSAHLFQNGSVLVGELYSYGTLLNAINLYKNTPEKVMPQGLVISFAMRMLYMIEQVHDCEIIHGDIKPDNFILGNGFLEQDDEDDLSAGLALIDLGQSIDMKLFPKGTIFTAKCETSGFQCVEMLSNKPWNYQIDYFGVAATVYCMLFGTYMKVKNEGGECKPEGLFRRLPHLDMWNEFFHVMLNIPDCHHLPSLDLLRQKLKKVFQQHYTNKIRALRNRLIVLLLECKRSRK

Compound | IC50
O=C1CCCc2[nH]c(-c3ccncc3)c(Nc3ccc(F)c(F)c3)c21 [Example 134, 3-[(3,4-difluorophenyl)amino]-2-(pyridin-4-yl)-1,5,6,7-tetrahydro-4H-indol-4-one] | 49.7 nM
CC1(C)CC(=O)c2c([nH]c(-c3c(F)cncc3F)c2Nc2ccccc2)C1 [Example 135, 2-(3,5-difluoropyridin-4-yl)-6,6-dimethyl-3-(phenylamino)-1,5,6,7-tetrahydro-4H-indol-4-one] | 188 nM
O=C1CCCc2[nH]c(-c3c(F)cncc3F)c(Nc3cccc(F)c3)c21 [Example 136, 2-(3,5-difluoropyridin-4-yl)-3-[(3-fluorophenyl)amino]-1,5,6,7-tetrahydro-4H-indol-4-one] | 924 nM
Nc1cc(-c2[nH]c3c(c2Nc2cccc(F)c2)C(=O)CCC3)ccn1 [Example 138, 2-(2-aminopyridin-4-yl)-3-[(3-fluorophenyl)amino]-1,5,6,7-tetrahydro-4H-indol-4-one] | 92.4 nM
Nc1cc(-c2[nH]c3c(c2Nc2ccccc2)C(=O)CCC3)ccn1 [Example 139, 2-(2-aminopyridin-4-yl)-3-(phenylamino)-1,5,6,7-tetrahydro-4H-indol-4-one] | 113 nM
O=C1CCCc2[nH]c(-c3ccncc3Cl)c(Nc3ccc(F)cc3)c21 [Example 142, 2-(3-chloropyridin-4-yl)-3-[(4-fluorophenyl)amino]-1,5,6,7-tetrahydro-4H-indol-4-one] | 68.5 nM
Cc1cc(-c2[nH]c3c(c2Nc2ccccc2)C(=O)CCC3)ccn1 [Example 143, 2-(2-methylpyridin-4-yl)-3-(phenylamino)-1,5,6,7-tetrahydro-4H-indol-4-one] | 558 nM
CCNC(=O)c1cccc(Nc2c(-c3ccncc3)[nH]c3c2C(=O)CC(C)(C)C3)c1 [Example 144, 3-{[6,6-dimethyl-4-oxo-2-(pyridin-4-yl)-4,5,6,7-tetrahydro-1H-indol-3-yl]amino}-N-ethylbenzamide] | 1720 nM
CNc1cc(-c2[nH]c3c(c2Nc2ccccc2)C(=O)CC(C)(C)C3)ccn1 [Example 145, 6,6-dimethyl-2-[2-(methylamino)pyridin-4-yl]-3-(phenylamino)-1,5,6,7-tetrahydro-4H-indol-4-one] | 148 nM
CC1(C)CC(=O)c2c([nH]c(-c3ccncc3)c2Nc2ccccc2C#N)C1 [Example 146, 2-{[6,6-dimethyl-4-oxo-2-(pyridin-4-yl)-4,5,6,7-tetrahydro-1H-indol-3-yl]amino}benzonitrile] | 48.2 nM
CC1(C)CC(=O)c2c([nH]c(-c3ccncc3)c2Nc2ccc(F)c(C#N)c2)C1 [Example 147, 5-{[6,6-dimethyl-4-oxo-2-(pyridin-4-yl)-4,5,6,7-tetrahydro-1H-indol-3-yl]amino}-2-fluorobenzonitrile] | 258 nM
CC1(C)CC(=O)c2c([nH]c(-c3ccncc3)c2Nc2ccc(F)c(OC(F)(F)F)c2)C1 [Example 148, 3-{[4-fluoro-3-(trifluoromethoxy)phenyl]amino}-6,6-dimethyl-2-(pyridin-4-yl)-1,5,6,7-tetrahydro-4H-indol-4-one] | 479 nM
Cc1cc(-c2[nH]c3c(c2Nc2ccccc2)C(=O)CC(C)(C)C3)ccn1 [Example 149, 6,6-dimethyl-2-(2-methylpyridin-4-yl)-3-(phenylamino)-1,5,6,7-tetrahydro-4H-indol-4-one] | 94.1 nM
COc1cc(-c2[nH]c3c(c2Nc2ccccc2)C(=O)CCC3)ccn1 [Example 150, 2-(2-methoxypyridin-4-yl)-3-(phenylamino)-1,5,6,7-tetrahydro-4H-indol-4-one] | 1890 nM
O=C1CCCc2[nH]c(-c3ccnc(Br)c3)c(Nc3ccccc3)c21 [Example 152, 2-(2-bromopyridin-4-yl)-3-(phenylamino)-1,5,6,7-tetrahydro-4H-indol-4-one] | 239 nM
CC1(C)CC(=O)c2c([nH]c(-c3ccncc3)c2Nc2cccc(C3(C)OCCO3)c2)C1 [Example 153, 6,6-dimethyl-3-{[3-(2-methyl-1,3-dioxolan-2-yl)phenyl]amino}-2-(pyridin-4-yl)-1,5,6,7-tetrahydro-4H-indol-4-one] | 11500 nM
CCC(O)c1cccc(Nc2c(-c3ccncc3)[nH]c3c2C(=O)CC(C)(C)C3)c1 (centres unmarked) [Example 154, 3-{[3-(1-hydroxypropyl)phenyl]amino}-6,6-dimethyl-2-(pyridin-4-yl)-1,5,6,7-tetrahydro-4H-indol-4-one] | 3000 nM
CC1(C)CC(=O)c2c([nH]c(-c3ccncc3)c2Nc2cccc(C(O)C(F)(F)F)c2)C1 (centres unmarked) [Example 155, 6,6-dimethyl-2-(pyridin-4-yl)-3-{[3-(2,2,2-trifluoro-1-hydroxyethyl)phenyl]amino}-1,5,6,7-tetrahydro-4H-indol-4-one] | 1710 nM
COC(C)c1cccc(Nc2c(-c3ccncc3)[nH]c3c2C(=O)CC(C)(C)C3)c1 (centres unmarked) [Example 156, 3-{[3-(1-methoxyethyl)phenyl]amino}-6,6-dimethyl-2-(pyridin-4-yl)-1,5,6,7-tetrahydro-4H-indol-4-one] | 743 nM

Compound | IC50
CC1(C)CC(=O)c2c([nH]c(-c3ccncc3)c2Nc2cccc3ccccc23)C1 [Example 157, 6,6-dimethyl-3-(naphthalen-1-ylamino)-2-(pyridin-4-yl)-1,5,6,7-tetrahydro-4H-indol-4-one] | 764 nM
CC1(C)CC(=O)c2c([nH]c(-c3ccncc3)c2Nc2ccc3ccccc3c2)C1 [Example 158, 6,6-dimethyl-3-(naphthalen-2-ylamino)-2-(pyridin-4-yl)-1,5,6,7-tetrahydro-4H-indol-4-one] | 95.6 nM
CC1(C)CC(=O)c2c([nH]c(-c3ccncc3)c2Nc2ccccc2Oc2ccccc2)C1 [Example 159, 6,6-dimethyl-3-[(2-phenoxyphenyl)amino]-2-(pyridin-4-yl)-1,5,6,7-tetrahydro-4H-indol-4-one] | 1060 nM
CC1(C)CC(=O)c2c([nH]c(-c3ccncc3)c2Nc2ccccc2-c2ccccc2)C1 [Example 160, 3-(biphenyl-2-ylamino)-6,6-dimethyl-2-(pyridin-4-yl)-1,5,6,7-tetrahydro-4H-indol-4-one] | 204 nM
O=C1CCCc2[nH]c(-c3ccnc(N(C(=O)C4CC4)C(=O)C4CC4)c3)c(Nc3cccc(F)c3)c21 [Example 162, N-(cyclopropylcarbonyl)-N-(4-{3-[(3-fluorophenyl)amino]-4-oxo-4,5,6,7-tetrahydro-1H-indol-2-yl}pyridin-2-yl)cyclopropanecarboxamide] | 85.6 nM
O=C1CCCc2[nH]c(-c3ccnc(N(C(=O)C4CC4)C(=O)C4CC4)c3)c(Nc3ccccc3)c21 [Example 163, N-(cyclopropylcarbonyl)-N-{4-[4-oxo-3-(phenylamino)-4,5,6,7-tetrahydro-1H-indol-2-yl]pyridin-2-yl}cyclopropanecarboxamide] | 126 nM
CC1(C)CC(=O)c2c([nH]c(-c3ccnc(NC(=O)C(F)F)c3)c2Nc2ccccc2)C1 [Example 166, N-{4-[6,6-dimethyl-4-oxo-3-(phenylamino)-4,5,6,7-tetrahydro-1H-indol-2-yl]pyridin-2-yl}-2,2-difluoroacetamide] | 1690 nM
Cn1c2c(c(Nc3ccccc3)c1-c1ccncc1)C(=O)CCC2 [Example 169, 1-methyl-3-(phenylamino)-2-(pyridin-4-yl)-1,5,6,7-tetrahydro-4H-indol-4-one] | 125 nM
CCn1c2c(c(Nc3ccccc3)c1-c1ccncc1)C(=O)CCC2 [Example 170, 1-ethyl-3-(phenylamino)-2-(pyridin-4-yl)-1,5,6,7-tetrahydro-4H-indol-4-one] | 40.2 nM
CCCn1c2c(c(Nc3ccccc3)c1-c1ccncc1)C(=O)CCC2 [Example 171, 3-(phenylamino)-1-propyl-2-(pyridin-4-yl)-1,5,6,7-tetrahydro-4H-indol-4-one] | 14.4 nM
COC(=O)CCn1c2c(c(Nc3ccccc3)c1-c1ccncc1)C(=O)CCC2 [Example 172, methyl 3-[4-oxo-3-(phenylamino)-2-(pyridin-4-yl)-4,5,6,7-tetrahydro-1H-indol-1-yl]propanoate] | 1050 nM
O=C(O)CCn1c2c(c(Nc3ccccc3)c1-c1ccncc1)C(=O)CCC2 [Example 173, 3-[4-oxo-3-(phenylamino)-2-(pyridin-4-yl)-4,5,6,7-tetrahydro-1H-indol-1-yl]propanoic acid] | 474 nM
NC(=O)CCn1c2c(c(Nc3ccccc3)c1-c1ccncc1)C(=O)CCC2 [Example 174, 3-[4-oxo-3-(phenylamino)-2-(pyridin-4-yl)-4,5,6,7-tetrahydro-1H-indol-1-yl]propanamide] | 220 nM
O=C1CCCc2c1c(Nc1ccccc1)c(-c1ccncc1)n2CCCO [Example 175, 1-(3-hydroxypropyl)-3-(phenylamino)-2-(pyridin-4-yl)-1,5,6,7-tetrahydro-4H-indol-4-one] | 217 nM
CS(=O)(=O)CCn1c2c(c(Nc3ccccc3)c1-c1ccncc1)C(=O)CCC2 [Example 176, 1-[2-(methylsulfonyl)ethyl]-3-(phenylamino)-2-(pyridin-4-yl)-1,5,6,7-tetrahydro-4H-indol-4-one] | 2040 nM
CCn1c2c(c(Nc3ccccc3)c1-c1ccncc1Cl)C(=O)CCC2 [Example 177, 2-(3-chloropyridin-4-yl)-1-ethyl-3-(phenylamino)-1,5,6,7-tetrahydro-4H-indol-4-one] | 5670 nM
CC1CC(=O)c2c(Nc3ccccc3)c(-c3ccncc3)n(C)c2C1 (centres unmarked) [Example 178, 1,6-dimethyl-3-(phenylamino)-2-(pyridin-4-yl)-1,5,6,7-tetrahydro-4H-indol-4-one] | 99.6 nM
Cn1c2c(c(Nc3ccccc3)c1-c1ccncc1)C(=O)CC(C)(C)C2 [Example 179, 1,6,6-trimethyl-3-(phenylamino)-2-(pyridin-4-yl)-1,5,6,7-tetrahydro-4H-indol-4-one] | 162 nM
CC1(C)CC(=O)c2c(Nc3ccccc3)c(-c3ccncc3)n(CC(F)(F)F)c2C1 [Example 180, 6,6-dimethyl-3-(phenylamino)-2-(pyridin-4-yl)-1-(2,2,2-trifluoroethyl)-1,5,6,7-tetrahydro-4H-indol-4-one] | 199 nM
